Laboratory results reported in patent US20250019398A1, “NONAMERIC PEPTIDE HAVING EXCELLENT ANTIBACTERIAL ACTIVITY AGAINST GRAM-NEGATIVE BACTERIA AND ENANTIOMER THEREOF” (priority 2021, published 2025).
Converted amounts (≈) assume the structure as drawn. “Also recorded” adds a separate entry of the source. Where two headings read alike, the source gives them in different places. Square brackets hold non-standard residues; d marks the D form. Ends that are not written are not given here. Peptide text beside a SMILES is read from it.

How the values were obtained:
[1] = test system: CRAB 12005 (carbapenem-resistant A. baumanii CCARM); assay: MIC, broth dilution; assay type: cell-based, A. baumannii; settings: 16 hours, read-out: Minimal inhibitory concentration (MIC), CRAB 12005
Excerpt: (§1) Among the bacterial strains used in the experiment, Escherichia coli KCTC 1682 was obtained from the Korean Collection for Type Cultures (KCTC) (Jeongeup, Korea), Acinetobacter baumannii KCCM 40203 and Pseudomonas aeruginosa KCCM 11328 were obtained from the Korean Culture Center of Microorganisms (KCCM) (Seoul, Korea), and Klebsiella pneumonia NCCP 16054 was obtained from the National Culture Collection for Pathogens (NCCP) (Osong, Korea). In addition, carbapenem-resistant E. coli NCCP16044 and carbapenem-resistant Klebsiella pneumonia NCCP 15782 were obtained from the NCCP, and three types of carbapenem-resistant A. baumanii CCARM 12004-6 were obtained from the Culture Collection of Antimicrobial Resistance Microbes (CCARM) (Cheongju City, Korea). The E. coli K1 (ATCC700973) strain used in the animal experiments was obtained from the American Type Culture Collection (ATCC) ([…]).
(§2) The antimicrobial activities of the peptides were measured by a minimal inhibitory concentration (MIC) analysis. The MIC was determined using a broth dilution method. All bacterial strains were grown overnight at 37° C. in a Muller-Hinton (MH) medium.

[2] = test system: CRAB 12006 (carbapenem-resistant A. baumanii CCARM); assay: MIC, broth dilution; assay type: cell-based, A. baumannii; settings: 16 hours, read-out: Minimal inhibitory concentration (MIC), CRAB 12006
Excerpt: as §1, §2

[3] = test system: CRAB 12004 (carbapenem-resistant A. baumanii CCARM); assay: MIC, broth dilution; assay type: cell-based, A. baumannii; settings: 16 hours, read-out: Minimal inhibitory concentration (MIC), CRAB 12004
Excerpt: as §1, §2

[4] = test system: carbapenem-resistant E. coli NCCP16044 (CREC 16044); assay: microbe, parasite or virus in culture; assay type: cell-based; settings: 16 hours, read-out: Minimal inhibitory concentration (MIC), CREC 16044
Excerpt: as §1, §2

[5] = test system: sheep red blood cells (sRBCs); assay: Hemolysis of sheep red blood cells; assay type: cell-based; settings: for Hemolysis of sRBCs: 100 μM, 1 h
Experimental: Peptide-induced toxicity was determined by hemolysis of sheep red blood cells (sRBCs). Fresh sRBCs were washed three times or more with phosphate buffered saline (PBS), and debris was removed by centrifugation (1000×g, 5 minutes, 4° C.). All the peptides including a melittin control (0.2 to 100 μM) and a positive control (1% (v/v) Triton X-100) were cultured with 4% (v/v) sRBCs at 37° C. for 1 h, and then centrifuged at 1000×g for 5 minutes. The supernatant was measured at 405 nm using a microplate reader.

[6] = test system: Klebsiella pneumonia NCCP 16054; assay: MIC, broth dilution; assay type: cell-based; settings: standard Gram-negative bacteria, 16 hours
Excerpt: as §1, §2

[7] = test system: carbapenem-resistant Klebsiella pneumonia NCCP 15782 (CRKP 15782); assay: MIC, broth dilution; assay type: cell-based; settings: 16 hours
Excerpt: as §1, §2

[8] = test system: RAW 264.7 mouse macrophages; assay: WST-8 cytotoxicity; assay type: cell-based; settings: 100 μM, 24 hours
Experimental: (§3) Additionally, for a cell-based toxicity assay, RAW 264.7 mouse macrophages and human kidney (HK)-2 cells were obtained from the Korean Cell Line Bank (Seoul, Korea), and cells were maintained in a DMEM culture medium (Thermo Fischer Scientific Inc., MA, USA) supplemented with 10% fetal bovine serum and 1% penicillin/streptomycin at 37° C. in a humidified 5% CO2 incubator. The cytotoxicity of the peptides was analyzed using a WST-8 cell proliferation assay (Biomax Co, Ltd, Seoul, South Korea), and the experiment was performed according to the kit protocol. Cells (1×10^4) were seeded in a 96-well plate, the peptide treatment (0 to 100 μM) were initiated at 80% confluency and then the cells were cultured for 24 hours. After culturing, a WST-8 reagent was added and the change in absorbance was read at 450 nm relative to the reagent blank, and values were expressed as percent cell survival.

[9] = test system: human kidney (HK)-2 cells; assay: WST-8 cytotoxicity; assay type: cell-based; settings: 100 μM, 24 hours
Experimental: as §3

[10] = test system: Escherichia coli KCTC 1682; assay: MIC, broth dilution; assay type: cell-based; settings: standard Gram-negative bacteria, 16 hours; read-out: Minimal inhibitory concentration (MIC), E. coli
Excerpt: In addition, carbapenem-resistant E. coli NCCP16044 and carbapenem-resistant Klebsiella pneumonia NCCP 15782 were obtained from the NCCP, and three types of carbapenem-resistant A. baumanii CCARM 12004-6 were obtained from the Culture Collection of Antimicrobial Resistance Microbes (CCARM) (Cheongju City, Korea). The E. coli K1 (ATCC700973) strain used in the animal experiments was obtained from the American Type Culture Collection (ATCC) ([…]).
as §2

[11] = In vivo toxicity (serum AST, ALT, BUN); parameters: species or system ICR mice; settings: 1 mg/kg and 5 mg/kg i.p., 24 hours
Experimental: For in vivo toxicity measurements, ICR mice (n=5 per group) were injected intraperitoneally (i.p.) with R-Pro9-3D (1 mg and 5 mg/kg/day in PBS), and serum levels of aspartate aminotransferase (AST) and alanine aminotransferase (ALT) in the liver and BUN (blood urea nitrogen) in the kidney were measured using a standard kit manufactured by ASAN PHARM. Co., LTD.

[12] = test system: Pseudomonas aeruginosa KCCM 11328; assay: MIC, broth dilution; assay type: cell-based; settings: standard Gram-negative bacteria, 16 hours
Excerpt: as §1, §2

[13] = test system: Acinetobacter baumannii KCCM 40203; assay: MIC, broth dilution; assay type: cell-based; settings: standard Gram-negative bacteria, 16 hours
Excerpt: as §1, §2

E. coli = assay type: cell-based; settings: 37° C.; for MIC, E. coli + Trypsin: peptide pre-cultured with trypsin 6 hours; for MIC, E. coli + α-Chymotrypsin: peptide pre-cultured with α-chymotrypsin 6 hours
Experimental: (§4) Proteolysis of peptides in serum has limited clinical use due to decreased bioavailability and half-life. Therefore, the stability of all the peptides pre-exposed to trypsin and chymotrypsin proteases was investigated and the relative growth inhibition of E. coli and A. baumannii was determined (Table 3). […] Thereafter, 100 μL of a peptide-protease mixture was added to 100 μL of a bacterial suspension (E. coli, A. baumannii, 2×10^5 CFU/mL), and the resulting mixture was further cultured at 37°° C. for 16 hours. A bacterial suspension without a peptide and protease was employed as a negative control. An analysis was performed in triplicates through independent experiments, and the degree of bacterial growth was measured at 600 nm using a microplate reader.

A. baumannii = assay type: cell-based; settings: 37° C.; for MIC, A. baumannii + Trypsin: peptide pre-cultured with trypsin 6 hours; for MIC, A. baumannii + α-Chymotrypsin: peptide pre-cultured with α-chymotrypsin 6 hours
Experimental: as §4

LPS = assay: LAL chromogenic endotoxin assay (LPS neutralization); assay type: biochemical; settings: LPS 2 ng/mL; peptide concentration of the values not stated (3.1-50 μM tested)
Experimental: Peptide-mediated LPS-neutralizing activity was determined using a Limulus amebocyte lysate (LAL) chromogenic endotoxin quantification kit (GenScript, New Jersey, USA). 3.1, 6.3, 10, 12.5, 25, and 50 μM of each peptide were allowed to react so as to interact with LPS (2 ng/mL) at 37° C. for 10 minutes. LL-37, which is known to have high LPS-neutralizing ability, was used as a control. After an LAL enzyme (10 μL) was added to the peptide-LPS complex and the resulting mixture was allowed to react for 10 minutes, a chromogenic substrate was added thereto. An endotoxin level was shown by measuring the absorbance at 545 nm in triplicate and expressed in endotoxin units (EUs) per milliliter.

LPS (E. coli O111:B4) = assay: BODIPY-TR cadaverine displacement assay (LPS binding); settings: 4 μM, 30 minutes
Experimental: The binding ability of peptides to LPS was investigated by BODIPY-TR cadaverine (BC, Thermo Fisher Scientific, MA, USA) displacement assay (FIG. 2A). A probe complex was prepared by mixing 5 μg/mL BC and 5 μg/mL LPS (E. coli O111:B4, Sigma-Aldrich, St. Louis, MO, USA) in a 50 mM Tris buffer (pH 7.4) at room temperature for 6 hours. Peptides containing a polymyxin B (PMB) control (1 to 64 μM), which is known to have high LPS binding ability, were allowed to interact with the LPS-BC mixture in a black 96-well plate for 30 minutes. Relative fluorescence intensities were recorded using a fluorescence microplate reader (Molecular Devices, San Jose, USA) at an excitation wavelength of 580 nm and an emission wavelength of 620 nm.

[14] = sheep red blood cells, 200 μM used when no detectable hemolysis at 100 μM

Molecule | MIC [1] | MIC [2] | MIC [3] | MIC [4] | Minimal inhibitory concentration (MIC), K. pneumonia [6] | Minimal inhibitory concentration (MIC), CRKP 15782 [7] | Toxicity in RAW264.7 cells [8] | Toxicity in human kidney (HK)-2 cells [9] | other results
C[C@@H](O)[C@H]1C(=O)N2C(C(=O)O)=C(SCCN=CN)C[C@H]12 [Imipenem] | – | – | – | – | – | – | – | – | MIC ([1]; Acinetobacter baumannii): 64 µM (≈ 19.2 µg/mL); MIC ([2]; Acinetobacter baumannii): 64 µM (≈ 19.2 µg/mL); MIC ([3]; Acinetobacter baumannii): 64 µM (≈ 19.2 µg/mL); MIC ([4]; Escherichia coli): 8 µM (≈ 2.39 µg/mL)
CC[C@@H](C)[C@@H](NC(=O)[C@@H](C)NC(=O)[C@@H](CC(C)C)NC(=O)[C@@H](Cc1c[nH]c2ccccc12)NC(=O)[C@@H](CC(C)C)NC(=O)[C@H](N)CCCNC(=N)N)C(=O)N[C@H](Cc1c[nH]c2ccccc12)C(=O)N[C@H](CCCNC(=N)N)C(=O)N[C@H](CCCNC(=N)N)C(N)=O [Pro9-3D, rlwlaiwrr-NH2] (H-[dR][dL][dW][dL][dA][dI][dW][dR][dR]-NH2) | 8 µM (≈ 10.1 µg/mL) | 8 µM (≈ 10.1 µg/mL) | 8 µM (≈ 10.1 µg/mL) | 8 µM (≈ 10.1 µg/mL) | 8 µM (≈ 10.1 µg/mL) | 8 µM (≈ 10.1 µg/mL) | – | – | HC10 (peptide concentration that induces 10% hemolysis) ([5]; red cells of sheep): 200 µM
CC[C@@H](C)[C@@H](NC(=O)[C@@H](Cc1c[nH]c2ccccc12)NC(=O)[C@@H](CCCNC(=N)N)NC(=O)[C@H](N)CCCNC(=N)N)C(=O)N[C@H](C)C(=O)N[C@H](CC(C)C)C(=O)N[C@H](Cc1c[nH]c2ccccc12)C(=O)N[C@H](CC(C)C)C(=O)N[C@H](CCCNC(=N)N)C(N)=O [R-Pro9-3D, rrwialwlr-NH2] (H-[dR][dR][dW][dI][dA][dL][dW][dL][dR]-NH2) | 4 µM (≈ 5.07 µg/mL) | 4 µM (≈ 5.07 µg/mL) | 4 µM (≈ 5.07 µg/mL) | 4 µM (≈ 5.07 µg/mL) | 8 µM (≈ 10.1 µg/mL) | 8 µM (≈ 10.1 µg/mL) | 20.3% | 9.6% | MIC [10]: 8 µM (≈ 10.1 µg/mL); Hemolysis of sRBCs [5]: 1.2%; HC10 (peptide concentration that induces 10% hemolysis) [5, 14]: 200 µM; Serum AST, ALT and BUN levels (in vivo toxicity) [11]: no clinically significant levels; also recorded: did not increase the above enzyme levels; Minimal inhibitory concentration (MIC), P. aeruginosa [12]: 8 µM (≈ 10.1 µg/mL); Minimal inhibitory concentration (MIC), A. baumannii [13]: 4 µM (≈ 5.07 µg/mL); MIC, E. coli + Trypsin (E. coli): 8 µM; MIC, E. coli + α-Chymotrypsin (E. coli): 8 µM; MIC, A. baumannii + Trypsin (A. baumannii): 4 µM; MIC, A. baumannii + α-Chymotrypsin (A. baumannii): 4 µM
LL-37 | – | – | – | – | – | – | – | – | LPS neutralization (LPS): 76.5%
RLWLAIWRR-NH2 [Pro9-3] | 16 µM | 16 µM | 16 µM | 16 µM | 64 µM | 64 µM | neither R-Pro9-3 nor Pro9-3 showed toxicity; also recorded: non-toxic | neither R-Pro9-3 nor Pro9-3 showed toxicity; also recorded: non-toxic | HC10 (peptide concentration that induces 10% hemolysis) ([5]; red cells of sheep): 200 µM
RRWIALWLR-NH2 [R-Pro9-3] | 16 µM | 16 µM | 32 µM | 16 µM | 32 µM | 16 µM | neither R-Pro9-3 nor Pro9-3 showed toxicity; also recorded: non-toxic | neither R-Pro9-3 nor Pro9-3 showed toxicity; also recorded: non-toxic | MIC [10]: 16 µM; Hemolysis of sRBCs [5]: 3.4%; HC10 (peptide concentration that induces 10% hemolysis) [5, 14]: 200 µM; Minimal inhibitory concentration (MIC), P. aeruginosa [12]: 64 µM; Minimal inhibitory concentration (MIC), A. baumannii [13]: 16 µM; MIC, E. coli + Trypsin (E. coli): >64 µM; MIC, E. coli + α-Chymotrypsin (E. coli): 64 µM; MIC, A. baumannii + Trypsin (A. baumannii): >64 µM; MIC, A. baumannii + α-Chymotrypsin (A. baumannii): >64 µM
polymyxin B [PMB] | – | – | – | – | – | – | – | – | BC displacement (LPS binding) (LPS (E. coli O111:B4)): 76.6%
